The assay concerns Mycobacterium tuberculosis. The experiment in a line: Antibacterial activity against multi-drug resistant Mycobacterium tuberculosis assessed as reduction in microbial growth. Type of assay: functional.

Broadly, the MIC is the lowest concentration that inhibits growth of the organism.

`C=C[C@@H](O)C#CC#C[C@@H](O)/C=C\CCCCCCC` [FALCARINDIOL]: the MIC amounted to 32 µg/mL.

(Values after ChEMBL document CHEMBL6074642, “Natural and Bioinspired Lipidic Alkynylcarbinols as Leishmanicidal, Antiplasmodial, Trypanocidal, Fungicidal, Antibacterial, and Antimycobacterial Agents” (J Nat Prod, 2024).)
